# According to patent publication US20240174662A1, “SMALL MOLECULE INHIBITORS OF SALT INDUCIBLE KINASES” (Janssen Biotech, Inc., priority 2021, published 2024):
# “And” between values parts separate entries of the source, which are not always exact repeats. Identical values can stand only once.
# Target: SIK2 (Homo sapiens (Human), UniProt Q9H0K1)
# Experiment: SIK2 Enzymatic Assay Version 2 (High ATP)
# Assay type: biochemical
# Conditions: 3 mM ATP and 200 μM HDAC5tide final, ADP-Glo Max luminescence
# How it was run: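 Run at room temperature; SIK2 enzyme at 6 nM (2× final) preincubated with compound 30 min before reaction. ADP formation detected by ADP-Glo Max (2 h reagent, 1 h detection) with luminescence read-out.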
# SIK2, sequence (Q9H0K1 whole entry, species assumed): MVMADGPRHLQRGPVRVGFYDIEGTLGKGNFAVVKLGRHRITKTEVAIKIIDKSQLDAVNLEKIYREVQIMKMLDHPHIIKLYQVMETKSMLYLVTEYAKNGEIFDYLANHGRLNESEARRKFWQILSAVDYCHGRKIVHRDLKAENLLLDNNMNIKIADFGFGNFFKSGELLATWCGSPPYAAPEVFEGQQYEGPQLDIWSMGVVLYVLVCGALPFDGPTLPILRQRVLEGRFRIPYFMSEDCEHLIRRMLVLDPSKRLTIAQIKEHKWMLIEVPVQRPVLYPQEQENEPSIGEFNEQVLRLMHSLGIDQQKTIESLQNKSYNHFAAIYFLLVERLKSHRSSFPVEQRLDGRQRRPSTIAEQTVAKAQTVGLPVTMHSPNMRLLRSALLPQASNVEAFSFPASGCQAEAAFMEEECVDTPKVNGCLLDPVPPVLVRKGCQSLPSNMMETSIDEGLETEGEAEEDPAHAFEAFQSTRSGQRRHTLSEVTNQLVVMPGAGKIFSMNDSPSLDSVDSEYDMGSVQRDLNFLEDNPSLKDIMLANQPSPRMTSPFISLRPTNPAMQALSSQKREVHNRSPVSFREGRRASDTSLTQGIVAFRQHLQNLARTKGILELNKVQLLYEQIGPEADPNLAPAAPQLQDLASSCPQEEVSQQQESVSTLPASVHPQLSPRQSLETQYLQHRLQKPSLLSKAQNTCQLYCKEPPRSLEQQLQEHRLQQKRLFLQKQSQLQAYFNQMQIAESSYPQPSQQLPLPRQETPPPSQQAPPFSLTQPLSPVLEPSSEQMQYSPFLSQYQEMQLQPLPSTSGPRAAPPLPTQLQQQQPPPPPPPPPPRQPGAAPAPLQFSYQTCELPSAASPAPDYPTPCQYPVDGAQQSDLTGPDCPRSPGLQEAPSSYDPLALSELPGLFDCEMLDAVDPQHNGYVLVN
row,Compound,IC50
1,"COC[C@@H]1C[C@H](Oc2noc(C)c2-c2ccn3nc(Nc4cc(C)c(C)nn4)cc3c2)CN1 [Example 390, N-(5,6-dimethylpyridazin-3-yl)-5-[3-[(3S,5S)-5-(methoxymethyl)pyrrolidin-3-yl]oxy-5-methyl-isoxazol-4-yl]pyrazolo[1,5-a]pyridin-2-amine]",70.8 nM
2,"COC[C@@H]1C[C@H](Oc2noc(C)c2-c2ccn3nc(Nc4cc(C)c(C)nn4)cc3c2)CN1C [Example 391, N-(5,6-dimethylpyridazin-3-yl)-5-[3-[(3S,5S)-5-(methoxymethyl)-1-methyl-pyrrolidin-3-yl]oxy-5-methyl-isoxazol-4-yl]pyrazolo[1,5-a]pyridin-2-amine]",94.1 nM
3,"Cc1ccc(Nc2cc3cc(-c4c(OC[C@H]5CCN5)cnn4C)ccn3n2)nn1 [Example 392, 5-[4-[[(2R)-azetidin-2-yl]methoxy]-2-methyl-pyrazol-3-yl]-N-(6-methylpyridazin-3-yl)pyrazolo[1,5-a]pyridin-2-amine]",73 nM
4,"Cc1cnc(Nc2cc3cc(-c4c(OC[C@H]5CCN5)cnn4C)ccn3n2)cn1 [Example 393, 5-[4-[[(2R)-azetidin-2-yl]methoxy]-2-methyl-pyrazol-3-yl]-N-(5-methylpyrazin-2-yl)pyrazolo[1,5-a]pyridin-2-amine]",98.4 nM
5,"Cn1ncc(OC[C@H]2CCN2)c1-c1ccn2nc(Nc3ccc(C4CC4)nn3)cc2c1 [Example 394, 5-[4-[[(2R)-azetidin-2-yl]methoxy]-2-methyl-pyrazol-3-yl]-N-(6-cyclopropylpyridazin-3-yl)pyrazolo[1,5-a]pyridin-2-amine]",103 nM
6,"CN1CC[C@@H]1COc1cnn(C)c1-c1ccn2nc(Nc3ncc(F)cn3)cc2c1 [Example 395, N-(5-fluoropyrimidin-2-yl)-5-[2-methyl-4-[[(2R)-1-methylazetidin-2-yl]methoxy]pyrazol-3-yl]pyrazolo[1,5-a]pyridin-2-amine]",97.5 nM
7,"CN1CC[C@@H](COc2cnn(C)c2-c2ccn3nc(NC(=O)C4CC4)cc3c2)C1 [Example 396, N-[5-[2-methyl-4-[[(3R)-1-methylpyrrolidin-3-yl]methoxy]pyrazol-3-yl]pyrazolo[1,5-a]pyridin-2-yl]cyclopropanecarboxamide]",60.5 nM and 93.2 nM
8,"Cn1ncc(OC2CNC2)c1-c1ccn2nc(NC(=O)C3CC3)cc2c1 [Example 397, N-[5-[4-(azetidin-3-yloxy)-2-methyl-pyrazol-3-yl]pyrazolo[1,5-a]pyridin-2-yl]cyclopropanecarboxamide]",128 nM
9,"CCn1ncc(OC[C@@H]2CCN(C)C2)c1-c1ccn2nc(NC(=O)C3CC3)cc2c1 [Example 398, N-[5-[2-ethyl-4-[[(3R)-1-methylpyrrolidin-3-yl]methoxy]pyrazol-3-yl]pyrazolo[1,5-a]pyridin-2-yl]cyclopropanecarboxamide]",97.8 nM
10,"CN1CC(Oc2cnn(C)c2-c2ccn3nc(NC(=O)C4CC4)cc3c2)C1 [Example 399, N-[5-[2-methyl-4-(1-methylazetidin-3-yl)oxy-pyrazol-3-yl]pyrazolo[1,5-a]pyridin-2-yl]cyclopropanecarboxamide]",174 nM
11,"Cn1ncc(OC[C@H]2C[C@@H](N)C2)c1-c1ccn2nc(NC(=O)C3CC3)cc2c1 [Example 400, N-[5-[4-[(3-aminocyclobutyl)methoxy]-2-methyl-pyrazol-3-yl]pyrazolo[1,5-a]pyridin-2-yl]cyclopropanecarboxamide]",108 nM
12,"Cn1ncc(OCC2(N)COC2)c1-c1ccn2nc(NC(=O)C3CC3)cc2c1 [Example 402, N-[5-[4-[(3-aminooxetan-3-yl)methoxy]-2-methyl-pyrazol-3-yl]pyrazolo[1,5-a]pyridin-2-yl]cyclopropanecarboxamide]",92.4 nM
13,"Cn1ncc(OC[C@H](O)c2ccccc2)c1-c1ccn2nc(NC(=O)C3CC3)cc2c1 [Example 403, N-[5-[4-[(2R)-2-hydroxy-2-phenyl-ethoxy]-2-methyl-pyrazol-3-yl]pyrazolo[1,5-a]pyridin-2-yl]cyclopropanecarboxamide]",99.7 nM
14,"Cn1ncc(O[C@H]2CC[C@@H](O)CC2)c1-c1ccn2nc(NC(=O)C3CC3)cc2c1 [Example 404, N-[5-[4-(4-hydroxycyclohexoxy)-2-methyl-pyrazol-3-yl]pyrazolo[1,5-a]pyridin-2-yl]cyclopropanecarboxamide]",120 nM
15,"CN1CC(F)(COc2cnn(C)c2-c2ccn3nc(NC(=O)C4CC4)cc3c2)C1 [Example 405, N-[5-[4-[(3-fluoro-1-methyl-azetidin-3-yl)methoxy]-2-methyl-pyrazol-3-yl]pyrazolo[1,5-a]pyridin-2-yl]cyclopropanecarboxamide]",98.3 nM
16,"COC1(COc2cnn(C)c2-c2ccn3nc(NC(=O)C4CC4)cc3c2)CN(C)C1 [Example 406, N-[5-[4-[(3-methoxy-1-methyl-azetidin-3-yl)methoxy]-2-methyl-pyrazol-3-yl]pyrazolo[1,5-a]pyridin-2-yl]cyclopropanecarboxamide]",174 nM

row,Compound,IC50
1,"Cn1ncc(OC2CCNCC2)c1-c1ccn2nc(NC(=O)C3CC3)cc2c1 [Example 407, N-[5-[2-methyl-4-(4-piperidyloxy)pyrazol-3-yl]pyrazolo[1,5-a]pyridin-2-yl]cyclopropanecarboxamide]",86 nM
2,"CCC1(COc2cnn(C)c2-c2ccn3nc(NC(=O)C4CC4)cc3c2)CN(C)C1 [Example 408, N-[5-[4-[(3-ethyl-1-methyl-azetidin-3-yl)methoxy]-2-methyl-pyrazol-3-yl]pyrazolo[1,5-a]pyridin-2-yl]cyclopropanecarboxamide]",79.5 nM
3,"CN1CC(COc2cnn(C)c2-c2ccn3nc(NC(=O)C4CC4)cc3c2)(c2ccccc2)C1 [Example 410, N-[5-[2-methyl-4-[(1-methyl-3-phenyl-azetidin-3-yl)methoxy]pyrazol-3-yl]pyrazolo[1,5-a]pyridin-2-yl]cyclopropanecarboxamide]",72.5 nM
4,"Cn1ncc(OC[C@@H]2CCCN2)c1-c1ccn2nc(NC(=O)C3CC3)cc2c1 [Example 412, N-[5-[2-methyl-4-[[(2S)-pyrrolidin-2-yl]methoxy]pyrazol-3-yl]pyrazolo[1,5-a]pyridin-2-yl]cyclopropanecarboxamide]",122 nM
5,"CN1C[C@H](F)[C@H](Oc2cnn(C)c2-c2ccn3nc(NC(=O)C4CC4)cc3c2)C1 [Example 415, N-[5-[4-[(3R,4S)-4-fluoro-1-methyl-pyrrolidin-3-yl]oxy-2-methyl-pyrazol-3-yl]pyrazolo[1,5-a]pyridin-2-yl]cyclopropanecarboxamide]",124 nM
6,"Cn1ncc(OC[C@@H]2CNC[C@H]2O)c1-c1ccn2nc(NC(=O)C3CC3)cc2c1 [Example 416, N-[5-[4-[[(3S,4S)-4-hydroxypyrrolidin-3-yl]methoxy]-2-methyl-pyrazol-3-yl]pyrazolo[1,5-a]pyridin-2-yl]cyclopropanecarboxamide]",73.6 nM
7,"CN1C[C@@H](COc2cnn(C)c2-c2ccn3nc(NC(=O)C4CC4)cc3c2)[C@H](O)C1 [Example 417, N-[5-[4-[[(3S,4S)-4-hydroxy-1-methyl-pyrrolidin-3-yl]methoxy]-2-methyl-pyrazol-3-yl]pyrazolo[1,5-a]pyridin-2-yl]cyclopropanecarboxamide]",130 nM
8,"CN1CCC[C@H]1COc1cnn(C)c1-c1ccn2nc(NC(=O)C3CC3)cc2c1 [Example 419, N-[5-[2-methyl-4-[[(2S)-1-methylpyrrolidin-2-yl]methoxy]pyrazol-3-yl]pyrazolo[1,5-a]pyridin-2-yl]cyclopropanecarboxamide]",136 nM
9,"CCN1CCC[C@H]1COc1cnn(C)c1-c1ccn2nc(NC(=O)C3CC3)cc2c1 [Example 420, N-[5-[4-[[(2S)-1-ethylpyrrolidin-2-yl]methoxy]-2-methyl-pyrazol-3-yl]pyrazolo[1,5-a]pyridin-2-yl]cyclopropanecarboxamide]",171 nM
10,"CO[C@@H]1CNC[C@H]1COc1cnn(C)c1-c1ccn2nc(NC(=O)C3CC3)cc2c1 [Example 422, N-[5-[4-[[(3S,4S)-4-methoxypyrrolidin-3-yl]methoxy]-2-methyl-pyrazol-3-yl]pyrazolo[1,5-a]pyridin-2-yl]cyclopropanecarboxamide]",96.9 nM
11,"CO[C@@H]1CN(C)C[C@H]1COc1cnn(C)c1-c1ccn2nc(NC(=O)C3CC3)cc2c1 [Example 423, N-[5-[4-[[(3S,4S)-4-methoxy-1-methyl-pyrrolidin-3-yl]methoxy]-2-methyl-pyrazol-3-yl]pyrazolo[1,5-a]pyridin-2-yl]cyclopropanecarboxamide]",151 nM
12,"CN1C[C@H](COc2cnn(C)c2-c2ccn3nc(NC(=O)C4CC4)cc3c2)[C@@H](O)C1 [Example 424, N-[5-[4-[[(3R,4R)-4-hydroxy-1-methyl-pyrrolidin-3-yl]methoxy]-2-methyl-pyrazol-3-yl]pyrazolo[1,5-a]pyridin-2-yl]cyclopropanecarboxamide]",96.1 nM
13,"Cn1ncc(OC[C@H]2CCN2CC#N)c1-c1ccn2nc(NC(=O)C3CC3)cc2c1 [Example 425, N-[5-[4-[[(2R)-1-(cyanomethyl)azetidin-2-yl]methoxy]-2-methyl-pyrazol-3-yl]pyrazolo[1,5-a]pyridin-2-yl]cyclopropanecarboxamide]",155 nM
14,"Cn1ncc(OC[C@@H](N)C(C)(C)O)c1-c1ccn2nc(NC(=O)C3CC3)cc2c1 [Example 426, N-[5-[4-[(2R)-2-amino-3-hydroxy-3-methyl-butoxy]-2-methyl-pyrazol-3-yl]pyrazolo[1,5-a]pyridin-2-yl]cyclopropanecarboxamide]",71.6 nM
15,"CCN1CCC[C@@H]1COc1cnn(C)c1-c1ccn2nc(NC(=O)C3CC3)cc2c1 [Example 427, N-[5-[4-[[(2R)-1-ethylpyrrolidin-2-yl]methoxy]-2-methyl-pyrazol-3-yl]pyrazolo[1,5-a]pyridin-2-yl]cyclopropanecarboxamide]",73.5 nM
16,"COCCN1CCC[C@@H]1COc1cnn(C)c1-c1ccn2nc(NC(=O)C3CC3)cc2c1 [Example 428, N-[5-[4-[[(2R)-1-(2-methoxyethyl)pyrrolidin-2-yl]methoxy]-2-methyl-pyrazol-3-yl]pyrazolo[1,5-a]pyridin-2-yl]cyclopropanecarboxamide]",183 nM
